Here are results for 17 compounds from patent US20200270232A1, “INHIBITORS OF INTEGRATED STRESS RESPONSE PATHWAY” (Praxis Biotech LLC, priority 2019, published 2020).

The test system of one test is ATF4. As to the kind of experiment: ATF4 expression inhibition assay (ATF4 luciferase reporter). The format is cell-based. To be noted: Homo sapiens, HEK-293T; HEK293T cells carrying the ATF4 luciferase reporter, 100 nM thapsigargin (Tg), 3 hours; read-out: ATF4 inhbition IC50. As for the experimental part:
The ATF4 reporter was prepared by fusing the human full length 5′UTR of ATF4 (NCBI Accession No. BC022088.2) upstream of the firefly luciferase coding sequence lacking the initiator methionine. The fused sequence was cloned into pLenti-EF1a-C-Myc-DDK-IRES-Puro cloning vector (Origen # PS 100085) using standard methods. Virus production was carried out by using Lenti-X™ Packaging Single Shots Protocol (Clonetech #631276). Viral particles were used to transduce HEK293T cells (ATCC # CRL-3216, ATCC Manassas, Va.), which were subsequently selected with puromycin to generate stable cell line. Cells were maintained at 37° C. and 5% CO2 in DMEM-F12 (Hyclone # SH30023.02) supplemented with 10% heat-inactivated fetal bovine serum (Gibco #16000-044), 2 mM L-glutamine (Gibco #25030-081), 100 U/ml penicillin, and 100 μg/ml streptomycin (Gibco #15140-122).
HEK293T cells carrying the ATF4 luciferase reporter were plated on 96-well plates (Nunc) at 10,000 cells per well. Cells were treated two days after seeding with 100 nM thapsigargin (Tg) (Sigma-Aldrich # T9033) in the presence of different concentrations of selected compounds ranging from 1 nM to 10 μM. Cells without treatment or cells treated with Tg alone were used as controls. Assay plates containing cells were incubated for 3 hours at 37° C.
Luciferase reactions were performed using Luciferase Assay System (Promega # E1501) as specified by the manufacturer. Luminescence was read with an integration time of 1 s and a gain of 110 using a Cytation-5 multi-mode microplate reader (BioTek). Relative luminescence units were normalized to Tg treatment (0% inhibition) and untreated cells (100% inhibition) and the percentage of ATF4 inhibition was calculated.
Accordingly, inhibition of ATF4 expression as a result of the test compound indicates suppression of the ISR pathway.
On the technique in general: Reporter assays use an easily measured gene product as a stand-in for the process of interest.

For test [1], the system named is Chinese hamster ovary (CHO) cells. As to the kind of experiment: Protein translation assay (puromycin labelling, western blot). It counts as cell-based. The following applies: 2 hours, media alone = 100%; for activity at 1 µM: Cricetulus griseus, unstressed CHO cells (without Tg), 1 μM test compound, read-out: % Protein synthesis relative to untreated (1 μM test compound); for % Recovery of protein synthesis (1 μM test compound): stressed CHO cells, 300 nM Tg, Tg alone = 0%. As for the experimental part:
Chinese hamster ovary (CHO) cells were maintained at 37° C. and 5% C02 in Dulbecco's Modified Eagle's Media (DMEM) supplemented with 10% fetal bovine serum, 2 mM L-glutamine, 100 U/ml penicillin, and 100 μg/ml streptomycin. After reaching 80% of confluence, cells were detached and seeded on 6 well plates in complete media, allowed to recover overnight and treated for 2 hours with 1 μM of the test compound (to assess protein synthesis levels in unstressed condition), or for 2 hours with 300 nM Tg in the presence of 1 μM of the test compound (to assess the recovery of protein synthesis in a stressed condition). Cells with Tg alone were used as controls.
After the 2 hours treatments, media were replaced by adding 10 μg/ml puromycin (Sigma Aldrich # P8833) in complete media for 30 min. Media were removed and cells were lysed with SDS-PAGE lysis buffer. Lysates were transferred to 1.5 ml tubes and sonicated for 3 min and total protein amount were quantified using BCA Protein Assay Kit (Pierce). Equal amount of protein (30 μg) was loaded on SDS-PAGE gels. Proteins were transferred onto 0.2 μm PVDF membranes (BioRad) and probed with primary antibodies diluted in Tris-buffered saline supplemented with 0.1% Tween 20 (Merck # S6996184 505) and 3% bovine serum albumin (Rockland # BSA-50).
Puromycin (12D10) (Merck # MABE343) and β-actin (Sigma Aldrich # A5441) antibodies were used as primary antibody. A HRP-conjugated secondary antibody (Rockland) was employed to detect immune-reactive bands using enhanced chemiluminescence (ECL Western Blotting Substrate, Pierce). Quantification of protein bands was done by densitometry using ImageJ software.
Percent increase of protein synthesis in unstressed cells (without Tg treatment) in the presence of media alone or certain test compounds is shown in Table 3. The percentage levels were normalized to the media alone condition, which correspond to 100% protein synthesis.
Percent recovery of protein synthesis in stressed cells (with Tg treatment) due to the test compounds at 1 μM is also shown in Table 3. The levels were normalized to the media alone and Tg alone conditions, which correspond to 100% and 0% respectively.
(In general: Immunoblotting shows a protein as a band on a membrane.)

One may read the IC50 as the concentration needed to halve the response being measured. On to `O=C(COc1ccc(Cl)c(F)c1)NCC1CCC(NC(=O)c2ccc3cc(Cl)ccc3n2)C1` (stereo not shown) [Compound 85, 6-chloro-N-(3-((2-(4-chloro-3-fluorophenoxy)acetamido)methyl)cyclopentyl)quinoline-2-carboxamide], for which the IC50 in the test on ATF4 was below 1000 nM. Besides, the activity at 1 µM in test [1] stood at 88%.
Consider `O=C(NC1CCN(CC(O)COc2ccc(Cl)c(F)c2)C1)c1ccc2cc(Cl)ccc2n1` (stereo not shown) [Compound 53, 6-chloro-N-(1-(3-(4-chloro-3-fluorophenoxy)-2-hydroxypropyl)pyrrolidin-3-yl)quinoline-2-carboxamide], for which, in the test with ATF4, the IC50 was above 1000 nM. In test [1], the activity at 1 µM was determined as 102% and the “% Recovery of protein synthesis (1 μM test compound)” value (from here on “% Recovery of protein synthesis”) is listed as 37.93%.
For `O=C(COc1ccc(Cl)c(F)c1)NC1CCN(CCCOc2ccc(Cl)c(F)c2)C1` (stereo not shown) [Compound 100, 2-(4-chloro-3-fluorophenoxy)-N-(1-(3-(4-chloro-3-fluorophenoxy)propyl)pyrrolidin-3-yl)acetamide], in that order: above 100 nM, 69.1% and 0.00%.
For `O=C(NCC1CCN(CC(O)COc2ccc(Cl)c(F)c2)C1)c1cc2cc(Cl)ccc2o1` (stereo not shown) [Compound 8, 5-chloro-N-((1-(3-(4-chloro-3-fluorophenoxy)-2-hydroxypropyl)pyrrolidin-3-yl)methyl)benzofuran-2-carboxamide], in that order: above 1000 nM, 107% and 31.57%.
Taken in the same sequence, the figures for `O=C(COc1ccc(Cl)c(F)c1)NCC1CCN(NC(=O)c2cc3cc(Cl)ccc3o2)C1` (stereo not shown) [Compound 12, 5-chloro-N-(3-((2-(4-chloro-3-fluorophenoxy)acetamido)methyl)pyrrolidin-1-yl)benzofuran-2-carboxamide] were 3.58 nM, 97.7% and 13%.
Take `O=C(COc1ccc(Cl)c(F)c1)NCC1CCN(NC(=O)c2ccc3cc(Cl)ccc3n2)C1` (stereo not shown) [Compound 93, 6-chloro-N-(3-((2-(4-chloro-3-fluorophenoxy)acetamido)methyl)pyrrolidin-1-yl)quinoline-2-carboxamide]: the IC50 in the test with ATF4 was found to be 2.8 nM. Also, in test [1], the activity at 1 µM stood at 102% and the “% Recovery of protein synthesis” value worked out at 51.4%.
For `O=C(COc1ccc(Cl)c(F)c1)N[C@H]1CC[C@@H](NCC(O)COc2ccc(Cl)c(F)c2)C1` (stereo partly drawn) [Compound 2, 2-(4-chloro-3-fluorophenoxy)-N-((1S,3R)-3-((3-(4-chloro-3-fluorophenoxy)-2-hydroxypropyl)amino)cyclopentyl)acetamide], in that order: above 1000 nM, 84.7% and 28.2%.
For `O=C(N[C@@H]1CC[C@@H](NC[C@@H](O)COc2ccc(Cl)c(F)c2)C1)c1cc2cc(Cl)ccc2o1` [Compound 95, 5-chloro-N-((1R,3R)-3-(((R)-3-(4-chloro-3-fluorophenoxy)-2-hydroxypropyl)amino)cyclopentyl)benzofuran-2-carboxamide], in that order: below 1000 nM, 186% and 170.5%.
Taken in the same sequence, the figures for `O=C(N[C@H]1CC[C@@H](NCC(O)COc2ccc(Cl)c(F)c2)C1)c1ccc2cc(Cl)ccc2n1` (stereo partly drawn) [Compound 3, 6-chloro-N-((1S,3R)-3-((3-(4-chloro-3-fluorophenoxy)-2-hydroxypropyl)amino)cyclopentyl)quinoline-2-carboxamide] were 249 nM, 176% and 286%.
As to `O=C(N[C@H]1CC[C@H](NCC(O)COc2ccc(Cl)c(F)c2)C1)c1ccc2cc(Cl)ccc2n1` (stereo partly drawn) [Compound 13, 6-chloro-N-((1S,3S)-3-((3-(4-chloro-3-fluorophenoxy)-2-hydroxypropyl)amino)cyclopentyl)quinoline-2-carboxamide], the IC50 in the test with ATF4 was above 100 nM. Moreover, in test [1], the activity at 1 µM is 288% and the “% Recovery of protein synthesis” value is 161.6%.
For the compound `O=C(NCC1CCN(C[C@@H](O)COc2ccc(Cl)c(F)c2)C1)c1ccc2cc(Cl)ccc2n1` (stereo partly drawn) [Compound 80, 6-chloro-N-((1-((R)-3-(4-chloro-3-fluorophenoxy)-2-hydroxypropyl)pyrrolidin-3-yl)methyl)quinoline-2-carboxamide], the IC50 with ATF4 is above 100 nM. In addition, in test [1], the activity at 1 µM is 153% and the “% Recovery of protein synthesis” value is given as 23.9%.
For `O=C(COc1ccc(Cl)c(F)c1)NC1CCC(CNC(=O)c2cc3cc(Cl)ccc3o2)C1` (stereo not shown) [Compound 88, 5-chloro-N-((3-(2-(4-chloro-3-fluorophenoxy)acetamido)cyclopentyl)methyl)benzofuran-2-carboxamide], the IC50 in the test on ATF4 is below 1000 nM. Also, the activity at 1 µM in test [1] came out at 76.4%.
Consider `O=C(NC1CCC(NC[C@@H](O)COc2ccc(Cl)c(F)c2)C1)c1cc2cc(Cl)ccc2o1` (stereo partly drawn) [Compound 82, 5-chloro-N-(3-(((R)-3-(4-chloro-3-fluorophenoxy)-2-hydroxypropyl)amino)cyclopentyl)benzofuran-2-carboxamide], for which the IC50 in the test with ATF4 is above 1000 nM. In test [1], the activity at 1 µM is 160% and the “% Recovery of protein synthesis” value is listed as 176.4%.
Taken in the same sequence, the figures for `O=C(NC1CCN(CC(O)COc2ccc(Cl)c(F)c2)C1)c1cc2cc(Cl)ccc2o1` (stereo not shown) [Compound 98, 5-chloro-N-(1-(3-(4-chloro-3-fluorophenoxy)-2-hydroxypropyl)pyrrolidin-3-yl)benzofuran-2-carboxamide] were above 100 nM, 167% and 142.63%.
For `O=C(NC1CC[C@H](NC[C@H](O)COc2ccc(Cl)c(F)c2)C1)c1cc2cc(Cl)ccc2o1` (stereo partly drawn) [Compound 91, 5-chloro-N-((3S)-3-(((S)-3-(4-chloro-3-fluorophenoxy)-2-hydroxypropyl)amino)cyclopentyl)benzofuran-2-carboxamide], in that order: 1240 nM, 190% and 209.4%.
For `O=C(NCC1CCN(C[C@H](O)COc2ccc(Cl)c(F)c2)C1)c1ccc2cc(Cl)ccc2n1` (stereo partly drawn) [Compound 81, 6-chloro-N-((1-((S)-3-(4-chloro-3-fluorophenoxy)-2-hydroxypropyl)pyrrolidin-3-yl)methyl)quinoline-2-carboxamide], in that order: 1000 nM, 134% and 38.7%.
In the case of `O=C(N[C@H]1CC[C@H](NC[C@@H](O)COc2ccc(Cl)c(F)c2)C1)c1cc2cc(Cl)ccc2o1` [Compound 94, 5-chloro-N-((1S,3S)-3-(((R)-3-(4-chloro-3-fluorophenoxy)-2-hydroxypropyl)amino)cyclopentyl)benzofuran-2-carboxamide], in the test with ATF4, the IC50 turned out to be 24.3 nM. Moreover, in test [1], the activity at 1 µM was found to be 169% and the “% Recovery of protein synthesis” value was determined as 298.3%.
